The structures appear in SMILES notation. Where a name gives a salt, the structure may show the parent alone.

The target in assay [1] is T1, recombinant human Lp-PLA2 (Homo sapiens, UniProt Q13093).
T1 sequence (Q13093 22-441): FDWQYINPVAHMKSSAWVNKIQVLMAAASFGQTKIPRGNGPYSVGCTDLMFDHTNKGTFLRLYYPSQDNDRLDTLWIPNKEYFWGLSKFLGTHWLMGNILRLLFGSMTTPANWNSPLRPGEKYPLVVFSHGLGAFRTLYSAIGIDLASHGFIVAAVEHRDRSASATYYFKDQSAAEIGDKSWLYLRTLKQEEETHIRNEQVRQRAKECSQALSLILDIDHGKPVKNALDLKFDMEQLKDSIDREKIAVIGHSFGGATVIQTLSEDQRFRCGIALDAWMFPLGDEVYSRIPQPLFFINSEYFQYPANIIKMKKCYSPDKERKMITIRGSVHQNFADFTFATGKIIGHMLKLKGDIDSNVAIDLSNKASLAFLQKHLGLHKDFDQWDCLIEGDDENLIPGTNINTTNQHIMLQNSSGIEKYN
Put plainly: Recombinant human Lp-PLA2 assay (rhLp-PLA2, PED6 assay). It is filed as biochemical. As to conditions: recombinant human Lp-PLA2, PED6 substrate; upper limit for pIC50 in this assay is 9.3. From the text: (1) Recombinant Human Lp-PLA2 Assay (rhLp-PLA2) (Also Referred to as “PED6” Assay)
N-((6-(2,4-dinitrophenyl)amino)-hexanoyl)-2-(4,4-difluoro-5,7-dimethyl-4-bora-3a,4a-diaza-s-indacene-3-pentanoyl)-1-hexadecanoyl-sn-glycero-3-phosphoethanolamine, triethylammonium salt (PED6) is a commercially available fluorescently-labeled phospholipid, which is commercially available from Invitrogene and Molecular Probes. There is a quenching […] and a Bodipy fluorescein (FL) group in the sn2 position. Upon cleavage with Lp-PLA2, the Bodipy FL group is liberated and then may result in an increase in fluorescence. Inhibitors of Lp-PLA2 therefore prevent this cleavage and no fluorescent increase is observed.
The PED6 assay was run as an unquenched 10 μL assay. The source plate containing the compounds to be tested was prepared by making 1:3 (by volume) serial dilution of the compounds within DMSO on 384-well microplate. Then, 0.01 μL of the compounds on compound source plate were transferred into 384 well Greiner 784076 (black) plates using ECHO liquid dispenser. 5 µL of recombinant human Lp-PLA2 enzyme (4 nM (or 110 pM) rhLp-PLA2 in assay buffer of 50 mM HEPES, pH 7.4, 150 mM NaCl, 1 mM CHAPS) was added to each well of the plate. Plates were centrifuged for 10 sec at 500 rpm. After 30 minutes preincubation, 5 µL of substrate (4 μM (or 5 μM) PED6 [from 5 mM DMSO stock] in assay buffer of 50 mM HEPES, pH 7.4, 150 mM NaCl, 1 mM CHAPS) was added to 384 well Greiner 784076 (black) plates. Plates were centrifuged for 10 sec at 500 rpm. The plate was covered to protect it from light and incubated for 20 min at room temperature. The plates were read for fluorescence intensity at ex: 480/em: 540 using ViewLux microplate imager for Envision spectrofluroimeters pIC50 data, curve and QC analysis was conducted by using XL fit module in Excel.
The compounds described below were tested generally according to the PED6 assay described above.

A further assay has as its target T2, Lp-PLA2 in human plasma (Homo sapiens, UniProt Q13093).
T2 construct: This assay may detect the activity of Lp-PLA2 in human plasma; from tissue; host or cells: pooled human plasma
T2 sequence (Q13093 22-441): T1 sequence (Q13093 22-441)
Briefly: Lp-PLA2 human plasma assay (Thio-PAF assay). It is filed as biochemical. The settings on record: pooled human plasma, 2-thio-PAF substrate; read-out: pIC50 in the thio-PAF assay (converted). The source says:
(3) Lipoprotein-Associated Phospholipase A2 (Lp-PLA2) Human Plasma Assay (Also Referred to as “Thio-PAF Assay”)
The human plasma assay utilizes a thioester analog of PAF (phosphatidylcholine), where hydrolysis yields to the formation of a phospholipid containing a free thiol group. The amount of thiol is quantitated continuously by reacting with CPM (7-diethylamino-3-(4′-maleimidylphenyl)-4-methylcoumarin), a maleimide which increases in fluoresence after Michael addition of thiols. This assay may detect the activity of Lp-PLA2 in human plasma, as determined by specific inhibition by Lp-PLA2 inhibitors.
The thio-PAF assay was run as a quenched 15 μL assay. Compounds source plate was prepared by making 1:3 (by volume) serial dilution of the compounds into pure DMSO on 384-well microplate. 0.01 μL of compounds on compound source plate were transferred to 384 well Greiner 784076 (black) low-volume plates by ECHO liquid dispenser. 8 μL pooled human plasma, which was previously aliquoted and frozen, was added. Plates were centrifuged for 10 sec at 500 rpm. After 30 minutes preincubation, 2 μL of substrate solution comprising 2.5 mM 2-thio-PAF [from ethanol stock], 32 μM CPM [from a DMSO stock] and 3.2 mM NEM (N-ethylmaleimide) [made fresh daily in DMSO] in assay buffer of 50 mM HEPES, pH 7.4, 150 mM NaCl, 1 mM CHAPS was added to 384 well Greiner 784076 (black) low-volume plates by BRAVO liquid handling station. After 2 mins, reaction was quenched with 5 μL of 5% aqueous trifluoroacetic acid (TFA). Plates were covered to protect from light and incubated for 40 min at room temperature. Plates were read at ex: 380/em: 485 using-Envision microplate reader. pIC50 data, curve and QC analysis was conducted by using XLFit module in Excel.

Consider `O=c1nc(OCc2ccc(Oc3ccc(Cl)c(Cl)c3)c(F)c2)cc2n1CCN2` [Example 98, 7-((4-(3,4-dichlorophenoxy)-3-fluorobenzyl)oxy)-2,3-dihydroimidazo[1,2-c]pyrimi-din-5(1H)-one], for which the IC50 in assay [1] is ≤ 10 nM.

On to `CN1CCn2c1cc(OCc1ccc(Oc3ccc(C#N)nc3)c(C#N)c1)nc2=O` [Example 108, 5-(2-cyano-4-(((1-methyl-5-oxo-1,2,3,5-tetrahydroimidazo[1,2-c]pyrimidin-7-yl)oxy)methyl)phenoxy)picolinonitrile], for which the IC50 at Lp-PLA2 in human plasma is ≤ 1000 nM.

`N#Cc1cc(COc2cc3n(c(=O)n2)CCN3)ccc1Oc1cccc(C(F)(F)F)c1` [Example 112, 5-(((5-oxo-1,2,3,5-tetrahydroimidazo[1,2-c]pyrimidin-7-yl)oxy)methyl)-2-(3-(trifluoromethyl)phenoxy)benzonitrile]: the IC50 in assay [1] is ≤ 10 nM.

With `N#Cc1cc(COc2cc3n(c(=O)n2)CCN3)ccc1Oc1cnc(F)c(F)c1` [Example 117, 2-((5,6-difluoropyridin-3-yl)oxy)-5-(((5-oxo-1,2,3,5-tetrahydroimidazo[1,2-c]pyrimidin-7-yl)oxy)methyl)benzonitrile], the IC50 in assay [1] was ≤ 10 nM.

As for `CN1CCn2c1cc(OCc1ccc(Oc3cncc(F)c3)c(C#N)c1)nc2=O` [Example 137, 2-((5-fluoropyridin-3-yl)oxy)-5-(((1-methyl-5-oxo-1,2,3,5-tetrahydroimidazo[1,2-c]pyrimidin-7-yl)oxy)methyl)benzonitrile], the IC50 on Lp-PLA2 in human plasma was ≤ 1000 nM.

For `CN1CCn2c1cc(OCc1ccc(Oc3cncc(C#N)c3)c(C#N)c1)nc2=O` [Example 138, 5-(2-cyano-4-(((l-methyl-5-oxo-1,2,3,5-tetrahydroimidazo[1,2-c]pyrimidin-7-yl)oxy)methyl)phenoxy)nicotinonitrile], the IC50 on Lp-PLA2 in human plasma is ≤ 1000 nM.

In the case of `CN1CCn2c1cc(OCc1ccc(Oc3cncc(C#N)c3)c(F)c1)nc2=O` [Example 141, 5-(2-fluoro-4-(((1-methyl-5-oxo-1,2,3,5-tetrahydroimidazo[1,2-c]pyrimidin-7-yl)oxy)methyl)phenoxy)nicotinonitrile], the IC50 on Lp-PLA2 in human plasma was ≤ 1000 nM.

With `CN1CCn2c1cc(OCc1ccc(F)c(C#N)c1)nc2=O` [Example 146, 2-fluoro-5-(((l-methyl-5-oxo-1,2,3,5-tetrahydroimidazo[1,2-c]pyrimidin-7-yl)oxy)methyl)benzonitrile], on Lp-PLA2 in human plasma, the IC50 is ≤ 1000 nM.

For `O=c1nc(OCc2ccc(Oc3cc(F)cc(C(F)(F)F)c3)c(F)c2)cc2n1CCN2` [Example 151, 7-((3-fluoro-4-(3-fluoro-5-(trifluoromethyl)phenoxy)benzyl)oxy)-2,3-dihydroim-idazo[1,2-c]pyrimidin-5(1H)-one], the IC50 in assay [1] was ≤ 1 nM.

On to `CN1CCn2c1cc(OCc1ccc(F)c(F)c1)nc2=O` [Example E7, 7-((3,4-difluorobenzyl)oxy)-1-methyl-2,3-dihydroimidazo[1,2-c]pyrimidin-5(1H)-one], for which the IC50 at Lp-PLA2 in human plasma is ≤ 1000 nM.

On to `CN1CCn2c1cc(OCc1cc(F)c(Oc3ccc(F)cc3)c(F)c1)nc2=O` [Example E12, 7-((3,5-difluoro-4-(4-fluorophenoxy)benzyl)oxy)-1-methyl-2,3-dihydroimidazo[1,2-c]pyrimidin-5(1H)-one], for which the IC50 in assay [1] is ≤ 10 nM.

Turning to `CN1CCn2c1cc(OCc1ccc(F)c(Oc3cccc(Cl)c3)c1)nc2=O` [Example E16, 7-((3-(3-chlorophenoxy)-4-fluorobenzyl)oxy)-1-methyl-2,3-dihydroimidazo[1,2-c]pyrimidin-5(1H)-one], the IC50 in assay [1] was ≤ 10 nM.

Consider `CN1CCn2c1cc(OCc1cc(F)c(F)c(F)c1)nc2=O` [Example E17, 1-methyl-7-((3,4,5-trifluorobenzyl)oxy)-2,3-dihydroimidazo[1,2-c]pyrimidin-5(1H)-one], for which, at Lp-PLA2 in human plasma, the IC50 was ≤ 1000 nM.

Turning to `CN1CCn2c1cc(OCc1ccc(Oc3ccc(F)cc3)c(C#N)c1)nc2=O` [Example E22, 2-(4-fluorophenoxy)-5-(((1-methyl-5-oxo-1,2,3,5-tetrahydroimidazo[1,2-c]pyrimidin-7-yl)oxy)methyl)benzonitrile], in assay [1], the IC50 is ≤ 10 nM.

As for `CN1CCn2c1cc(OCc1ccc(Oc3cnc(C(F)(F)F)nc3)c(C#N)c1)nc2=O` [Example E31, 5-(((l-methyl-5-oxo-1,2,3,5-tetrahydroimidazo[1,2-c]pyrimidin-7-yl)oxy)methyl)-2-((2-(trifluoromethyl)pyrimidin-5-yl)oxy)benzonitrile], on Lp-PLA2 in human plasma, the IC50 is ≤ 1000 nM.

In the case of `CN1CCn2c1cc(OCc1cccc(C#N)c1)nc2=O` [Example E33, 3-(((1-methyl-5-oxo-1,2,3,5-tetrahydroimidazo[1,2-c]pyrimidin-7-yl)oxy)meth-yl)benzonitrile], the IC50 at Lp-PLA2 in human plasma was ≤ 1000 nM.

`CN1CCn2c1cc(OCc1ccc(Oc3ccc(F)c(Cl)c3)c(C#N)c1)nc2=O` [Example E39, 2-(3-chloro-4-fluorophenoxy)-5-(((1-methyl-5-oxo-1,2,3,5-tetrahydroimidazo[1,2-c]pyrimidin-7-yl)oxy)methyl)benzonitrile, trifluoroacetic acid salt]: the IC50 on Lp-PLA2 in human plasma was ≤ 1000 nM.

Turning to `CN1CCn2c1cc(OCc1ccc(Oc3cc(F)cc(F)c3)c(F)c1)nc2=O` [Example E43, 7-((4-(3,5-difluorophenoxy)-3-fluorobenzyl)oxy)-1-methyl-2,3-dihydroimidazo[1,2-c]pyrimidin-5(1H)-one, trifluoroacetic acid salt], the IC50 in assay [1] is ≤ 10 nM.

Turning to `CC(C)N1CCn2c1cc(OCc1ccc(F)c(F)c1)nc2=O` [Example E47, 7-((3,4-difluorobenzyl)oxy)-1-isopropyl-2,3-dihydroimidazo[1,2-c]pyrimidin-5(1H)-one, trifluoroacetic acid salt], the IC50 on Lp-PLA2 in human plasma was ≤ 1000 nM.

`Cc1ccc(Oc2ccc(COc3cc4n(c(=O)n3)CCN4C)cc2C#N)cn1` [Example E56, 5-(((1-methyl-5-oxo-1,2,3,5-tetrahydroimidazo[1,2-c]pyrimidin-7-yl)oxy)methyl)-2-((6-methylpyridin-3-yl)oxy)benzonitrile, trifluoroacetic acid salt]: the IC50 on Lp-PLA2 in human plasma is ≤ 1000 nM.

Consider `N#Cc1cccc(COc2cc3n(c(=O)n2)CCN3)c1` [Example E60, 3-(((5-oxo-1,2,3,5-tetrahydroimidazo[1,2-c]pyrimidin-7-yl)oxy)methyl)benzonitrile], for which the IC50 on Lp-PLA2 in human plasma was ≤ 1000 nM.

Consider `O=c1nc(OCc2ccc(Oc3cccc(C(F)(F)F)c3)c(Cl)c2)cc2n1CCN2` [Example E61, 7-((3-chloro-4-(3-(trifluoromethyl)phenoxy)benzyl)oxy)-2,3-dihydroimidazo[1,2-c]pyrimidin-5(1H)-one], for which the IC50 in assay [1] is ≤ 10 nM.

Regarding `O=c1nc(OCc2ccc(F)c(F)c2)cc2n1CCN2` [Example E68, 7-((3,4-difluorobenzyl)oxy)-2,3-dihydroimidazo[1,2-c]pyrimidin-5(1H)-one], at Lp-PLA2 in human plasma, the IC50 was ≤ 1000 nM.
